Reference: the supplement of paper PMC5908809

Experiments:
[1] = tested on: normal NK cells expanded with K562-aAPC; experiment: percent inhibition of viability; higher = more inhibition; conditions: 72 h, IL-2 2.5 ng/mL
Experimental: (§1)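 Drug sensitivity and resistance testing on K562-aAPC-expanded normal NK cells: 5 concentrations (10-fold steps over a 10,000-fold range), 72 h at 37 °C, viability by CellTiter-Glo normalised to DMSO and benzethonium chloride controls; DSS from the fitted curve.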

DERL-7 (IL-2 2.5 ng/mL) [2] = experiment: as above; conditions: 72 h
IMC-1 (IL-2 20 ng/mL) [3] = experiment: as above; conditions: 72 h
KAI3 (IL-2 2.5 ng/mL) [4] = experiment: as above; conditions: 72 h
KHYG-1 (IL-2 2.5 ng/mL) [5] = experiment: as above; conditions: 72 h
NK-92 (IL-2 2.5 ng/mL) [6] = experiment: as above; conditions: 72 h
NK-YS (IL-2 2.5 ng/mL) [7] = experiment: as above; conditions: 72 h
NKL (IL-2 2.5 ng/mL) [8] = experiment: as above; conditions: 72 h
SNK-6 (IL-2 2.5 ng/mL) [9] = experiment: as above; conditions: 72 h
YT (IL-2 2.5 ng/mL) [10] = experiment: as above; conditions: 72 h
[11] = tested on: normal primary NK cells, pool 1 (3 donors) (IL-2 2.5 ng/mL); experiment: as above; conditions: 72 h
[12] = tested on: normal primary NK cells, pool 1 (3 donors), resting (IL-2 0 ng/mL); experiment: as above; conditions: 72 h
[13] = tested on: normal primary NK cells, pool 2 (3 donors) (IL-2 2.5 ng/mL); experiment: as above; conditions: 72 h
[14] = tested on: normal primary NK cells, pool 3 (3 donors) (IL-2 2.5 ng/mL); experiment: as above; conditions: 72 h
[15] = tested on: normal NK cells expanded with K562-aAPC; experiment: drug sensitivity score (DSS) (DSS units); higher = more sensitive; extreme values may be limits of the assay; conditions: 72 h; IL-2 2.5 ng/mL
Experimental: as §1

DERL-7 (IL-2 2.5 ng/mL) [16] = experiment: as above; conditions: 72 h
IMC-1 (IL-2 20 ng/mL) [17] = experiment: as above; conditions: 72 h
KAI3 (IL-2 2.5 ng/mL) [18] = experiment: as above; conditions: 72 h
KHYG-1 (IL-2 2.5 ng/mL) [19] = experiment: as above; conditions: 72 h
NK-92 (IL-2 2.5 ng/mL) [20] = experiment: as above; conditions: 72 h
NK-YS (IL-2 2.5 ng/mL) [21] = experiment: as above; conditions: 72 h
NKL (IL-2 2.5 ng/mL) [22] = experiment: as above; conditions: 72 h
SNK-6 (IL-2 2.5 ng/mL) [23] = experiment: as above; conditions: 72 h
YT (IL-2 2.5 ng/mL) [24] = experiment: as above; conditions: 72 h
[25] = tested on: normal primary NK cells, pool 1 (3 donors) (IL-2 2.5 ng/mL); experiment: as above; conditions: 72 h
[26] = tested on: normal primary NK cells, pool 1 (3 donors), resting (IL-2 0 ng/mL); experiment: as above; conditions: 72 h
[27] = tested on: normal primary NK cells, pool 2 (3 donors) (IL-2 2.5 ng/mL); experiment: as above; conditions: 72 h
[28] = tested on: normal primary NK cells, pool 3 (3 donors) (IL-2 2.5 ng/mL); experiment: as above; conditions: 72 h

CCn1cc(-c2ccnc3[nH]c(-c4cccc(CN(C)C)c4)cc23)c(-c2ccc(NC(=O)N(C)C)cc2)n1 (max concentration tested 1000 nM)
percent inhibition of viability [%]
Conditions	0.1 nM	1 nM	10 nM	100 nM	1000 nM
DERL-7 (IL-2 2.5 ng/mL) [2]	-1.42	-13.7	13.4	68.1	56.9
IMC-1 (IL-2 20 ng/mL) [3]	-3.05	2.14	9.34	18.7	69
KAI3 (IL-2 2.5 ng/mL) [4]	0.71	-0.96	15.3	16.4	34.5
KHYG-1 (IL-2 2.5 ng/mL) [5]	-0.5	3.29	9.71	39.2	54
NK-92 (IL-2 2.5 ng/mL) [6]	-10.8	-15.2	-2.48	28.9	35.5
NK-YS (IL-2 2.5 ng/mL) [7]	-3.92	-3.4	26.2	69.9	66.9
NKL (IL-2 2.5 ng/mL) [8]	-15	-6.31	2.14	11.6	43.2
SNK-6 (IL-2 2.5 ng/mL) [9]	20.9	18.6	35	71.1	65.4
YT (IL-2 2.5 ng/mL) [10]	2.03	4.54	11.2	19.1	39.5
[1]	-5.72	-6.24	-0.83	49.9	32
[11]	6.54	-2.75	2.78	-10.4	-5.89
[12]	10.8	-0.01	-0.34	-11.5	8.25
[13]	-0.19	2.58	11.4	2.17	5.89
[14]	-9.36	-0.39	7.48	-0.31	7.08

Conditions	drug sensitivity score
DERL-7 (IL-2 2.5 ng/mL) [16]	14.7
IMC-1 (IL-2 20 ng/mL) [17]	6.3
KAI3 (IL-2 2.5 ng/mL) [18]	4.01
KHYG-1 (IL-2 2.5 ng/mL) [19]	8.32
NK-92 (IL-2 2.5 ng/mL) [20]	5.05
NK-YS (IL-2 2.5 ng/mL) [21]	16.5
NKL (IL-2 2.5 ng/mL) [22]	3.99
SNK-6 (IL-2 2.5 ng/mL) [23]	18.6
YT (IL-2 2.5 ng/mL) [24]	4.47
[15]	8.97
[25]	0
[26]	0
[27]	0
[28]	0

CN1CCC(COc2cnc(-c3cccc(Cn4nc(-c5cccc(C#N)c5)ccc4=O)c3)nc2)CC1 (max concentration tested 1000 nM)
percent inhibition of viability [%]
Conditions	0.1 nM	1 nM	10 nM	100 nM	1000 nM
DERL-7 (IL-2 2.5 ng/mL) [2]	-4.25	-4.18	3.15	4.81	39.5
IMC-1 (IL-2 20 ng/mL) [3]	-6.71	-2.19	-0.81	-1.98	-3.26
KAI3 (IL-2 2.5 ng/mL) [4]	-0.84	-8.6	-8.84	-7.75	-3.69
KHYG-1 (IL-2 2.5 ng/mL) [5]	0.03	-2.13	-6.37	1.52	15.3
NK-92 (IL-2 2.5 ng/mL) [6]	-7.1	-4.45	1.23	-11.4	6.42
NK-YS (IL-2 2.5 ng/mL) [7]	-1.64	-6.91	-7.12	-5.26	-5.69
NKL (IL-2 2.5 ng/mL) [8]	4.34	-14.9	-8.56	-9.54	20.4
SNK-6 (IL-2 2.5 ng/mL) [9]	10.8	3.77	-9.85	14	13.7
YT (IL-2 2.5 ng/mL) [10]	4	0.64	-1.46	-0.52	-0.42
[1]	-4.81	-10.8	-1.01	-5.56	4.27
[11]	-7	-6.88	-13.8	1.64	4.06
[12]	-5.12	-27.4	-19.6	3.81	3.64
[13]	-17.1	4.11	-9.87	-10	-13.3
[14]	-8.96	-8.97	-7.75	-16	-13.7

Conditions	drug sensitivity score
DERL-7 (IL-2 2.5 ng/mL) [16]	2.76
IMC-1 (IL-2 20 ng/mL) [17]	0
KAI3 (IL-2 2.5 ng/mL) [18]	0
KHYG-1 (IL-2 2.5 ng/mL) [19]	0.39
NK-92 (IL-2 2.5 ng/mL) [20]	0
NK-YS (IL-2 2.5 ng/mL) [21]	0
NKL (IL-2 2.5 ng/mL) [22]	0.35
SNK-6 (IL-2 2.5 ng/mL) [23]	1.09
YT (IL-2 2.5 ng/mL) [24]	0
[15]	0
[25]	0
[26]	0
[27]	0
[28]	0
